This note sets out measurements from paper PMC12040169 (PLOS Biology, 2025).

The structures appear in SMILES notation.

The series can be described thus: in vitro. To be noted: human, hela cells, % viability.
For orientation: viability means a read-out of living cells in per cent, often relative to untreated cells. With `CS(=O)(=O)N1CCC(Oc2nccnc2OCc2ccc(Cl)c(Cl)c2)CC1` [CBK144910], the viability at 28.5 h, 10 µM stood at 90.5%.

For `CSc1nnc(NS(=O)(=O)c2ccccc2C)s1` [CBK144918], the viability at 28.5 h, 10 µM worked out at 97.4%.

Consider `COCCSc1nnc(NS(=O)(=O)c2ccc(F)cc2)s1` [CBK144919], for which the viability at 28.5 h, 10 µM turned out to be 87.1%.

Take `CC(C)(C)OC(=O)N1CCN(Cc2ccn(Cc3ccc(S(C)(=O)=O)cc3)c2)CC1` [CBK144936]: the viability at 28.5 h, 10 µM came to 119%.

Turning to `CCCC1CCN(Cc2ccn(Cc3ccc(S(C)(=O)=O)cc3)c2)CC1` [CBK144937], the viability at 28.5 h, 10 µM was 94.4%.

For `O=C(Nc1cccnc1)N1CCN(c2ccccc2)CC1` [CBK145043], the viability at 28.5 h, 10 µM is 89.5%.

`CN(C)CCN(Cc1ccccc1)C(=O)Nc1cccnc1` [CBK145047]: the viability at 28.5 h, 10 µM came to 95%.

Consider `CCN(Cc1ccncc1)C(=O)Nc1cccnc1` [CBK145053], for which the viability at 28.5 h, 10 µM was 111%.

For the compound `CCN(Cc1ccncc1)C(=O)NCc1cccnc1` [CBK145054], the viability at 28.5 h, 10 µM amounted to 94.6%.

For `CCN(Cc1ccncc1)C(=O)NCc1ccc2c(c1)OCO2` [CBK145056], the viability at 28.5 h, 10 µM amounted to 102%.

As for `COc1ccc(CCOc2cnc(-c3ccccc3)c(N)n2)cc1` [CBK145065], the viability at 28.5 h, 10 µM was 98.8%.

On to `COc1cccc(COc2cnc(-c3ccccc3)c(N)n2)c1OC` [CBK145066], for which the viability at 28.5 h, 10 µM is 101%.

As to `COc1ccccc1-c1ncc(OCc2ccccn2)nc1N` [CBK145070], the viability at 28.5 h, 10 µM stood at 109%.

As for `COc1ccccc1-c1ncc(OC2CCN(C)C2)nc1N` (stereo not shown) [CBK145081], the viability at 28.5 h, 10 µM was 92.4%.

Turning to `COc1ccc(-c2ncc(Oc3cccc(NC(C)=O)c3)nc2N)c(OC)c1` [CBK145087], the viability at 28.5 h, 10 µM was 113%.

With `COCOc1ccc(-c2ncc(OCc3ccc4c(c3)OCO4)nc2N)cc1` [CBK145101], the viability at 28.5 h, 10 µM turned out to be 100%.

Turning to `COCc1cccc(-c2ncc(OCc3ccccn3)nc2N)c1` [CBK145108], the viability at 28.5 h, 10 µM worked out at 93.9%.

`Nc1nc(OCCc2cccs2)cnc1-c1ccc(OC(F)(F)F)cc1` [CBK145116]: the viability at 28.5 h, 10 µM was found to be 92.7%.

Take `Nc1nc(OCc2ccncc2)cnc1-c1ccc(OC(F)(F)F)cc1` [CBK145121]: the viability at 28.5 h, 10 µM stood at 99.8%.

Consider `Cc1ccc(-c2ncc(OCCN3CCCC3=O)nc2N)c(C)c1` [CBK145127], for which the viability at 28.5 h, 10 µM amounted to 99.3%.

As to `Cc1ccc(-c2ncc(OC3CCN(C)CC3)nc2N)c(C)c1` [CBK145139], the viability at 28.5 h, 10 µM turned out to be 97.5%.

For `Nc1nc(OCc2cccs2)cnc1-c1ccsc1` [CBK145161], the viability at 28.5 h, 10 µM worked out at 95.8%.

In the case of `Nc1nc(OCCOc2ccccc2)cnc1-c1ccsc1` [CBK145163], the viability at 28.5 h, 10 µM was 109%.

Turning to `Cn1cc(-c2ncc(OCCc3cccs3)nc2N)cn1` [CBK145167], the viability at 28.5 h, 10 µM is 87.8%.

As for `Cn1cc(-c2ncc(OCCOc3ccccc3)nc2N)cn1` [CBK145171], the viability at 28.5 h, 10 µM turned out to be 108%.

For the compound `Nc1nc(OCc2ccccc2)cnc1-c1cccc(C(F)(F)F)c1` [CBK145179], the viability at 28.5 h, 10 µM was 99.4%.

Consider `COc1cccc(Oc2cnc(-c3ccc(C(=O)N(C)C)cc3)c(N)n2)c1` [CBK145185], for which the viability at 28.5 h, 10 µM was 95.5%.

Consider `CN(C)C(=O)c1ccc(-c2ncc(OCc3cccs3)nc2N)cc1` [CBK145187], for which the viability at 28.5 h, 10 µM is 102%.

As to `Nc1nc(OCCN2CCOCC2)cnc1-c1cc(Cl)cc(Cl)c1` [CBK145198], the viability at 28.5 h, 10 µM was 99.8%.

For the compound `CCC(CC)C(=O)Nc1nc(OCCN2CCCC2=O)cnc1-c1ccc(Cl)cc1Cl` [CBK145210], the viability at 28.5 h, 10 µM was 92.6%.

Regarding `COCOc1ccc(-c2ncc(OC)nc2NC(=O)COC)cc1` [CBK145216], the viability at 28.5 h, 10 µM turned out to be 92.7%.

For the compound `COc1cnc(-c2cnn(C)c2)c(NC(=O)c2cc(C)oc2C)n1` [CBK145218], the viability at 28.5 h, 10 µM amounted to 93.2%.

On to `COc1cnc(/C=C\c2ccccc2)c(NC(=O)c2cc(C)oc2C)n1` [CBK145222], for which the viability at 28.5 h, 10 µM worked out at 95.1%.

Consider `COCOc1ccc(-c2ncc(OCCN3CCCC3=O)nc2NC(C)=O)cc1` [CBK145253], for which the viability at 28.5 h, 10 µM is 104%.

Take `COc1cnc(-c2ccccc2OC)c(NC(=O)Cc2ccccc2)n1` [CBK145260]: the viability at 28.5 h, 10 µM was found to be 95.8%.

With `COc1ccccc1-c1ncc(OCC(F)(F)F)nc1NC(=O)C1CC1` [CBK145275], the viability at 28.5 h, 10 µM was 86.4%.

With `COc1cnc(-c2ccsc2)c(NC(=O)c2cc(C)oc2C)n1` [CBK145294], the viability at 28.5 h, 10 µM is 93.2%.

For `CC(C)CC(=O)Nc1nc(OCC(F)(F)F)cnc1-c1ccc(Cl)cc1Cl` [CBK145356], the viability at 28.5 h, 10 µM is 94.2%.

Turning to `O=C(Nc1nc(OCC(F)(F)F)cnc1-c1ccc(Cl)cc1Cl)c1cc2ccccc2s1` [CBK145358], the viability at 28.5 h, 10 µM amounted to 87.4%.

Consider `COc1ccc(CC(=O)Nc2nc(OCC(F)(F)F)cnc2-c2ccc(Cl)cc2Cl)cc1` [CBK145359], for which the viability at 28.5 h, 10 µM was determined as 91%.

For the compound `CC(=O)Nc1nc(OCCN2CCCC2=O)cnc1/C=C\c1ccccc1` [CBK145371], the viability at 28.5 h, 10 µM was 84.9%.

Consider `COc1cnc(-c2cccc(C(=O)N(C)C)c2)c(NC(=O)c2ccccc2)n1` [CBK145385], for which the viability at 28.5 h, 10 µM amounted to 102%.

With `COc1cnc(-c2ccc(Cl)cc2Cl)c(NC(=O)Cc2ccccc2)n1` [CBK145398], the viability at 28.5 h, 10 µM came out at 92.8%.

Consider `CC(=O)Nc1nc(OCCOc2ccccc2)cnc1-c1cnn(C)c1` [CBK145425], for which the viability at 28.5 h, 10 µM stood at 92.6%.

On to `COc1ccc(CC(=O)Nc2nc(OC)cnc2-c2ccoc2)cc1` [CBK145435], for which the viability at 28.5 h, 10 µM amounted to 92.8%.

Take `CCCCN(C)c1c(CC)nc2ccc(C(=O)NCCc3ccccn3)cn12` [CBK145441]: the viability at 28.5 h, 10 µM was found to be 98.4%.

Turning to `CCCCN(C)c1c(CC)nc2ccc(C(=O)N3CCNC(=O)C3)cn12` [CBK145460], the viability at 28.5 h, 10 µM was found to be 87.9%.

Consider `CCc1nc2ccc(C(=O)NCCN3CCNC3=O)cn2c1N(CCN(C)C)CC1CC1` [CBK145469], for which the viability at 28.5 h, 10 µM was 89.2%.

In the case of `CCCCN(C=O)c1c(CC)nc2ccc(C(=O)Nc3ccc(Cl)c(Cl)c3)cn12` [CBK145470], the viability at 28.5 h, 10 µM came out at 84.1%.

On to `CCc1nc2ccc(C(=O)NCc3ccc4c(c3)OCO4)cn2c1N(CCN(C)C)CC1CC1` [CBK145472], for which the viability at 28.5 h, 10 µM was 97.1%.

Turning to `CCc1nc2ccc(C(=O)N(C)CCN(C)C)cn2c1N(C)Cc1nccs1` [CBK145474], the viability at 28.5 h, 10 µM turned out to be 96.8%.

For `CCOC(=O)N(C)c1c(CC)nc2ccc(C(=O)Nc3cc(-c4ccccc4)ccc3OC)cn12` [CBK145478], the viability at 28.5 h, 10 µM stood at 89.6%.

`Cc1nc2ccc(C(=O)N3CCCCC3)cn2c1N(C)C=O` [CBK145480]: the viability at 28.5 h, 10 µM is 100%.

Regarding `Cc1nc2ccc(C(=O)N(C)Cc3ccco3)cn2c1N(C)C=O` [CBK145482], the viability at 28.5 h, 10 µM stood at 99%.

For the compound `CCc1nc2ccc(C(=O)Nc3ccc(NC(C)=O)cc3)cn2c1N(C)CC` [CBK145483], the viability at 28.5 h, 10 µM came out at 94.5%.

`CCc1nc2ccc(C(=O)NC3CCN(Cc4ccccc4)CC3)cn2c1N(C)CC` [CBK145488]: the viability at 28.5 h, 10 µM was determined as 88.3%.

As for `CCc1nc2ccc(C(=O)NCc3cccs3)cn2c1N(C)CC` [CBK145492], the viability at 28.5 h, 10 µM was 108%.

With `CCc1nc2ccc(C(=O)NCCOc3ccc(OC)cc3)cn2c1N(C)CC` [CBK145504], the viability at 28.5 h, 10 µM came out at 91.9%.

Turning to `CCc1nc2ccc(C(=O)N3CCN(S(=O)(=O)CC)CC3)cn2c1N(C)CC` [CBK145520], the viability at 28.5 h, 10 µM turned out to be 85.1%.

On to `CCc1nc2ccc(C(=O)Nc3ccc4c(c3)OCC(=O)N4)cn2c1N(C)CC` [CBK145521], for which the viability at 28.5 h, 10 µM worked out at 96.8%.

In the case of `CCc1nc2ccc(C(=O)N3CCN(c4ccccc4)CC3)cn2c1N(C)Cc1ccc(OC)cc1` [CBK145584], the viability at 28.5 h, 10 µM came out at 85.4%.

`CCc1nc2ccc(C(=O)Nc3ccc(Cl)c(Cl)c3)cn2c1N(C)Cc1ccc(OC)cc1` [CBK145585]: the viability at 28.5 h, 10 µM came out at 93.6%.

On to `CCc1nc2ccc(C(=O)NCCNC(C)=O)cn2c1N(C)Cc1ccc(NC(C)=O)cc1` [CBK145612], for which the viability at 28.5 h, 10 µM turned out to be 87.4%.

For the compound `CCc1nc2ccc(C(=O)N3CCN(C(=O)c4ccco4)CC3)cn2c1N(C)Cc1ccncc1` [CBK145635], the viability at 28.5 h, 10 µM is 94.5%.

Regarding `CCc1nc2ccc(C(=O)NCCc3c[nH]c4ccccc34)cn2c1N(C)Cc1ccncc1` [CBK145636], the viability at 28.5 h, 10 µM was 99.7%.

Take `CCCCN(C(C)=O)c1c(CC)nc2ccc(C(=O)N(C)CCN(C)C)cn12` [CBK145739]: the viability at 28.5 h, 10 µM turned out to be 91.7%.

Turning to `CCCCN(C(C)=O)c1c(CC)nc2ccc(C(=O)NCc3ccccc3OC)cn12` [CBK145761], the viability at 28.5 h, 10 µM stood at 96%.

As for `CCc1nc2ccc(C(=O)N(C)CCN(C)C)cn2c1N(C)C(=O)C1CCCCC1` [CBK145771], the viability at 28.5 h, 10 µM was 93.8%.

For `CCc1nc2ccc(C(=O)N3CCNC(=O)C3)cn2c1N(C)C(=O)COc1ccccc1` [CBK145871], the viability at 28.5 h, 10 µM was determined as 107%.

Take `CCc1nc2ccc(C(=O)NC3=NN(c4ccccc4)C(=O)C3)cn2c1N(C)C(=O)COc1ccccc1` [CBK145873]: the viability at 28.5 h, 10 µM is 91.3%.

With `CCc1nc2ccc(C(=O)Nc3ccc(OC)c(OC)c3)cn2c1N(C)C(=O)Nc1ccccc1OC` [CBK145875], the viability at 28.5 h, 10 µM was 117%.

`CCc1nc2ccc(C(=O)N3CCN(c4ccccc4)CC3)cn2c1N(C)C(=O)Nc1ccccc1OC` [CBK145886]: the viability at 28.5 h, 10 µM stood at 96.2%.

As to `CCCCNC(=O)c1ccc2nc(C)c(N(C)CC3CCCCC3)n2c1` [CBK145913], the viability at 28.5 h, 10 µM is 99.6%.

Consider `CCc1nc2ccc(C(=O)N(C)Cc3ccccc3)cn2c1N(C=O)CC` [CBK145936], for which the viability at 28.5 h, 10 µM is 102%.

In the case of `CCN(CC)c1c(C)nc2ccc(C(=O)N(C)CCN(C)C)cn12` [CBK145950], the viability at 28.5 h, 10 µM turned out to be 90.6%.

As to `CCN(CC)c1c(C)nc2ccc(C(=O)NC3CCN(C)CC3)cn12` [CBK145965], the viability at 28.5 h, 10 µM stood at 98.7%.

Consider `CCc1nc2ccc(C(=O)N(C)CCN(C)C)cn2c1N(CC)CCOC` [CBK146018], for which the viability at 28.5 h, 10 µM was 94.2%.

Consider `CCc1nc2ccc(C(=O)N3CCCCC3)cn2c1N(C)CCC(C)C` [CBK146065], for which the viability at 28.5 h, 10 µM turned out to be 96.3%.

For `Cc1nc2ccc(C(=O)N(C)CCN(C)C)cn2c1N(C)Cc1cccs1` [CBK146083], the viability at 28.5 h, 10 µM is 102%.
